In BindingDB's records for patent WO2025049746 (Eikon Therapeutics, 2025) one finds IC50 data, which are given here for 13 compounds.

Experiment [1] deals with Bifunctional 3'-5' exonuclease/ATP-dependent helicase WRN (Homo sapiens, UniProt Q14191). The experiment can be described thus: ADP-Glo Kinase Assay. As to the method: ATPase activity was measured using the ADP-Glo Kinase Assay following the manufacturers recommended protocol.
In general terms: In ADP-Glo the light output rises with the ADP produced.

Experiment [2] concerns the target T1, Bifunctional 3'-5' exonuclease/ATP-dependent helicase WRN [480-1251] (UniProt Q14191).
T1 construct: 480-1251
The experiment can be described thus: Biochemical Activity Assays.

Chain of Bifunctional 3'-5' exonuclease/ATP-dependent helicase WRN (Q14191 whole entry): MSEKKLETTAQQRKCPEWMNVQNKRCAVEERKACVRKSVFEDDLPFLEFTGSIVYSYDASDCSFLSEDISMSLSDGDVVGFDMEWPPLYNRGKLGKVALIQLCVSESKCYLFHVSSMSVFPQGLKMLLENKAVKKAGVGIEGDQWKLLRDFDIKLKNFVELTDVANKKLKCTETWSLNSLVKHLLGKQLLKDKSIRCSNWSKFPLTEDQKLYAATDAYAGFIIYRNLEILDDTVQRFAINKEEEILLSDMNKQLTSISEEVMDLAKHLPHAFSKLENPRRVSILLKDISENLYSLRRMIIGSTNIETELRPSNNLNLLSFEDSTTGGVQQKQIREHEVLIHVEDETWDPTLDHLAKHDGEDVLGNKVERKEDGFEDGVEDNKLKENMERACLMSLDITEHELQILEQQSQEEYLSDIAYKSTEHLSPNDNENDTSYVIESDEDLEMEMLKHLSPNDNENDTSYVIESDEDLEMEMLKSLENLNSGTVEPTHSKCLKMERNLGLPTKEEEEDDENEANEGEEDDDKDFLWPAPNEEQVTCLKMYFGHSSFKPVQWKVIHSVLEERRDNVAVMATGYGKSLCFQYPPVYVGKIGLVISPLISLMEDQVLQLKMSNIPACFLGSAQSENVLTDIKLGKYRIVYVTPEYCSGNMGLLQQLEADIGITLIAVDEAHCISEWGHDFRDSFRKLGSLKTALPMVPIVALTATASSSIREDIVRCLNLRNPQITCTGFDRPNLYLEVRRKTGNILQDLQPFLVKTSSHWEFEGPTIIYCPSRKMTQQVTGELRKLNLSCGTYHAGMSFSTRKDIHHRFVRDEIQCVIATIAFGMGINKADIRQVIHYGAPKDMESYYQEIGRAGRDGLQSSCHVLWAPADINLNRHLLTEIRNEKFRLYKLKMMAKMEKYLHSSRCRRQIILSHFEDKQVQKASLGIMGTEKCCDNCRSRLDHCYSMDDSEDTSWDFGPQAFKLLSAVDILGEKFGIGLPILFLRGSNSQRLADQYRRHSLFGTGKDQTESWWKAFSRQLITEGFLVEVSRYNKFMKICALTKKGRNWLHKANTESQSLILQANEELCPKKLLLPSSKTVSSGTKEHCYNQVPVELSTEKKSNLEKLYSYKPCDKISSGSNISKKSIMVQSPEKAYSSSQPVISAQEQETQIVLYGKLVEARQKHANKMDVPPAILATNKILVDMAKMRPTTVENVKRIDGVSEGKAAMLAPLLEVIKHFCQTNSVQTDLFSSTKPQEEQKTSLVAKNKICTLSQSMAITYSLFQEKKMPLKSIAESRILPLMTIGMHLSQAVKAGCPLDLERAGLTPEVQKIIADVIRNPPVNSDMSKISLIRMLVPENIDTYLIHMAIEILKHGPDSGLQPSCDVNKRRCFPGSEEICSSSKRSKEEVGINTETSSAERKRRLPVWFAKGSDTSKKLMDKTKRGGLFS
T1 sequence (Q14191 480-1251): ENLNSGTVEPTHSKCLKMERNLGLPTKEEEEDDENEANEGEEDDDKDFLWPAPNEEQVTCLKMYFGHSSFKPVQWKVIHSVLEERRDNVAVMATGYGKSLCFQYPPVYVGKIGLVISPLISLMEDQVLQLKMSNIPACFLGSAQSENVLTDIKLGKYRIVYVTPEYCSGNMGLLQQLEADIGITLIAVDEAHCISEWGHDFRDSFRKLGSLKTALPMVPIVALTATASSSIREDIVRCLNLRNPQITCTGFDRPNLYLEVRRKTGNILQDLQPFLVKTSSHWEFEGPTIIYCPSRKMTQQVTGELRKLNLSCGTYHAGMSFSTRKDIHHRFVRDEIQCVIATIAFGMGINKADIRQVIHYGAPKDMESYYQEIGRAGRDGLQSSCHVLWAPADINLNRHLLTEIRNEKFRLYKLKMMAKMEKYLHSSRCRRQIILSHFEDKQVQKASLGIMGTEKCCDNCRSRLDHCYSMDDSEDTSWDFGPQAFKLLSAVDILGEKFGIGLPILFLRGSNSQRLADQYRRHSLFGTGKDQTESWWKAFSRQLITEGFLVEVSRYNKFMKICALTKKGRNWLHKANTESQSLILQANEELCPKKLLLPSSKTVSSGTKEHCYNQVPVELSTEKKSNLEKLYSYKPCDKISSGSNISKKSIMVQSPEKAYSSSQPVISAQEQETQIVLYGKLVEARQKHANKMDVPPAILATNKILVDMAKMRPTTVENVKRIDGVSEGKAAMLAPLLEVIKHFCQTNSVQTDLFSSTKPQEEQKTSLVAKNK

As usually defined, the IC50 is the concentration that gives 50% inhibition. For `CCc1c(N2CCN(C(=O)c3csc4cncnc34)CC2)c(=O)n2nc(C3=CCOCC3)nc2n1CC(=O)Nc1ccc(C(F)(F)F)cc1Cl` [WO2025049746, Example 43], the IC50 was 0.0639 µM in experiment [1] and 0.0419 µM in experiment [2].
For `CCc1c(N2CCN(C(=O)c3ncnc(C)c3O)CC2)c(=O)n2nc(-c3ccc4c(c3)COC4)nc2n1CC(=O)Nc1ccc(C(F)(F)F)cc1Cl` [WO2025049746, Example 13] the same measures were 0.0273 µM and 0.0235 µM.
For `CCc1c(N2CC[C@@H]3[C@@H]2CCCN3C(=O)c2ncnc(C)c2O)c(=O)n2nc(-c3ccc4c(c3)COC4)nc2n1CC(=O)Nc1ccc(C(F)(F)F)cc1Cl` [WO2025049746, Example 438], in that order: 0.025 µM and 0.028 µM.
Take `CCc1c(N2CCN(C(=O)c3nccc4cc[nH]c34)CC2)c(=O)n2nc(-c3ccc4c(c3)COC4(C)C)nc2n1CC(=O)Nc1ccc(C(F)(F)F)cc1Cl` [WO2025049746, Example 454]: the values for the IC50 in experiment [1] and in experiment [2] were 0.49 µM and 0.373 µM, respectively.
As to `CCc1c(N2CCN(C(=O)c3cc4nnn(C)c4cc3OC)CC2)c(=O)n2nc(-c3ccc4c(c3)COC4)nc2n1CC(=O)Nc1ccc(C(F)(F)F)cc1Cl` [WO2025049746, Example 429], the IC50 in experiment [1] turned out to be 0.118 µM; in experiment [2] it was 0.094 µM.
For `CCc1c(N2CCN(C(=O)c3ccccc3NS(=O)(=O)C3CC3)CC2)c(=O)n2nc(N3C[C@H]4COC[C@H]4C3)nc2n1CC(=O)Nc1ccc(C(F)(F)F)cc1Cl` [WO2025049746, Example 94], in that order: 0.0266 µM and 0.0234 µM.
For the compound `CCc1c(N2CCN(C(=O)c3ncnc(C)c3O)CC2)c(=O)n2nc(-c3ccc4occc4c3)nc2n1CC(=O)Nc1ccc(C(F)(F)F)cc1Cl` [WO2025049746, Example 283], the half-inhibitory concentration (IC50) in experiment [1] came to 0.033 µM; in experiment [2], 0.037 µM.
For `CCc1c(N2CCN(C(=O)C3CCCC3O)CC2)c(=O)n2nc(C3=CCOCC3)nc2n1CC(=O)Nc1ccc(C(F)(F)F)cc1Cl` (stereo unspecified) [WO2025049746, Example 58] the same measures were 1.26 µM and 0.187 µM.
For `CCc1c(N2CCN(C(=O)c3ncnc(C)c3O)CC2)c(=O)n2nc(-c3cc4c(cc3F)O[C@@H](C)C4)nc2n1CC(=O)Nc1ccc(C(F)(F)F)cc1Cl` [WO2025049746, Example 249] the same measures were 0.025 µM and 0.026 µM.
Take `CCc1c(N2CCN(c3ccncn3)CC2)c(=O)n2nc(C3=CCOCC3)nc2n1CC(=O)Nc1ccc(C(F)(F)F)cc1Cl` [WO2025049746, Example 66]: the IC50 in experiment [1] worked out at 0.0639 µM; in experiment [2], 0.0459 µM.
For `CCc1c(N2CCN(C(=O)c3ncnc(C)c3O)CC2)c(=O)n2nc(C3CCC3)nc2n1CC(=O)Nc1ccc(C(F)(F)F)cc1C` [WO2025049746, Example 79] the same measures were 0.539 µM and 0.456 µM.
As for `CCc1c(N2CCN(C(=O)c3ncnc(C)c3O)CC2)c(=O)n2nc(-c3ccc4c(c3)CCOC4)nc2n1C(F)(F)C(=O)Nc1ccc(C(F)(F)F)cc1Cl` [WO2025049746, Example 402], the results for the IC50 in experiment [1] and in experiment [2] were 0.032 µM and 0.026 µM, respectively.
Regarding `CCc1c(N2CCN(C(=O)c3ncnc(C)c3O)CC2)c(=O)n2nc(-c3ccc4nccnc4c3)nc2n1CC(=O)Nc1ccc(C(F)(F)F)cc1Cl` [WO2025049746, Example 280], the IC50 in experiment [1] is 0.028 µM; in experiment [2], 0.031 µM.
